Assay results published in patent US20240049723A1, “PLANT GROWTH REGULATOR OR METHOD FOR PROMOTING PLANT GROWTH” (Kureha Corporation, priority 2021, published 2024).

Key:
Assay type in all cases: in vivo
radish (Akamaru Hatsuka) = assay: Evaluation Example 5: underground part weight of radish; conditions: EGT concentration 0.1 mM; 28th day after seeding
Experimental: In a plastic pot having a diameter of 100 mm and a height of 135 mm, 600 mL of granular soil (Kumiai horticultural soil) was placed, and one individual radish (Akamaru Hatsuka) was sown in a pot.
The radish was managed in a greenhouse set at room temperature of 25° C. Chemical treatment was started 2 weeks after seeding. More specifically, on the 10th, 12th, 14th, and 16th days after seeding, 50 mL of the plant growth regulator was added.
(§1) As the plant growth regulator, the hot water extraction product of Pseudozyma siamensis (C-EGT-PSI) prepared in Production Example 1 was used. Furthermore, for comparison, a plant growth regulator formed from 0.1 mM of ergothioneine aqueous solution was used.
On the 28th day after seeding, the underground part weight was evaluated.

[1] = system: Arabidopsis thaliana (Col-0); assay: Evaluation Example 6: Arabidopsis thaliana treated with Pseudozyma siamensis extracts from various extraction methods; conditions: EGT concentration 0.1 mM
Experimental: (§2) One individual Arabidopsis thaliana (Col-0) was sown in a plastic pot having a diameter of 60 mm and a height of 55 mm. Plastic deep dishes each having a diameter of 160 mm and a height of 28 mm were prepared, and six pots were respectively placed therein. As soil, 45 mL of vermiculite, 22.5 mL of granular soil (Kumiai horticultural soil), and 22.5 mL of vermiculite were placed in the pot in this order.
(§3) In a growth chamber set at room temperature of 22° C., the light period was 16 hours and the dark period was 8 hours. The light conditions were set such that the light intensity was 5000 lx in the central part under irradiation with the fluorescent lamp. Water supply was conducted from the bottom, and the water level was set at about 5 mm. Chemical treatment was started […]. More specifically, on the 8th, 10th, 12th, and 14th days after seeding, 50 mL of the plant growth regulator was added instead of water supply.
(§4) As the plant growth regulator, various extracts of Pseudozyma siamensis obtained in Production Example 2 were used. Furthermore, for comparison, a plant growth regulator formed from 0.1 mM of ergothioneine aqueous solution was used.
On the 95th day after seeding, seeds were harvested, and the seed yield was evaluated.

wheat = assay: Evaluation Example 3: plant height of wheat, petri dish; conditions: EGT concentration 1 mM; 7th day after seeding
Experimental: (§5) In a 9 cm petri dish on which filter paper was spread, 10 mL of the plant growth regulator was added. Ten seeds of wheat or rapeseed were sown per one petri dish. In a thermostatic chamber set at room temperature of 25° C., the light period was 16 hours and the dark period was 8 hours. The light conditions were set using a fluorescent lamp (PLANT FLEC, 40 W LED fluorescent lamp for plant growth, electric bulb color, available from Nippon Medical and Chemical Instruments Co., Ltd.) such that the light intensity was 5000 lx in the central part under irradiation with the fluorescent lamp.
(§6) As the plant growth regulator, the hot water extraction product prepared in Production Example 1 was used. Furthermore, for comparison, a plant growth regulator formed from 1 mM of ergothioneine aqueous solution was used.
(§7) The plant height of the wheat or rapeseed on the 7th day after seeding was evaluated.

[2] = system: Arabidopsis thaliana (Col-0); assay: Evaluation Example 7: Arabidopsis thaliana treated with Pseudozyma siamensis extracts from various extraction methods; conditions: EGT concentration 0.1 mM; 93rd day after seeding
Experimental: as §2, §3, §4
On the 93rd day after seeding, the plant height, the aboveground part weight, and the seed yield were evaluated.

rapeseed = assay: Evaluation Example 3: plant height of rapeseed, petri dish; conditions: EGT concentration 1 mM; 7th day after seeding
Experimental: as §5, §6, §7

[3] = system: Arabidopsis thaliana (Col-0); assay: Evaluation Example 2: seed yield of Arabidopsis thaliana, C-EGT-DCH; conditions: EGT concentration 0.1 mM; harvested 87th day after seeding
Experimental: as §2, §3
As the plant growth regulator, the hot water extraction product of Dirkmeia churashimaensis (C-EGT-DCH) prepared in Production Example 1 was used. Furthermore, for comparison, a plant growth regulator formed from 0.1 mM of ergothioneine aqueous solution was used.
On the 87th day after seeding, seeds were harvested, and the seed yield was evaluated.

[4] = system: Arabidopsis thaliana (Col-0); assay: Evaluation Example 1: seed yield of Arabidopsis thaliana, hot water extraction products; conditions: EGT concentration 1 mM, harvested 89th day after seeding
Experimental: as §2
as §3, with “In a thermostatic chamber set” for “In a growth chamber set”, “were set using a fluorescent lamp (PLANT FLEC, 40 W LED fluorescent lamp for plant growth, electric bulb color, available from Nippon Medical and Chemical Instruments Co., Ltd.) such that” for “were set such that”
As the plant growth regulator, the hot water extraction product prepared in Production Example 1 was used. […]
On the 89th day after seeding, seeds were harvested, and the seed yield was evaluated.

tomato (Micro Tom) = assay: Evaluation Example 4: number of flowers of tomato; conditions: EGT concentration 0.1 mM; 64th day after seeding
Experimental: In a plastic pot having a square of 120 mm length and a height of 100 mm, 1 L of granular soil (Kumiai horticultural soil) was placed, and one individual tomato (Micro Tom) was sown in a pot.
In a thermostatic chamber set at room temperature of 25° C., the light period was 16 hours and the dark period was 8 hours. The light conditions were set using a fluorescent lamp (PLANT FLEC, 40 W LED fluorescent lamp for plant growth, electric bulb color, available from Nippon Medical and Chemical Instruments Co., Ltd.) such that the light intensity was 5000 lx in the central part under irradiation with the fluorescent lamp. Water supply was conducted from the bottom, and the water level was set at about 5 mm. Chemical treatment was started 4 weeks after seeding. More specifically, on the 25th, 27th, 29th, 31st, 33rd, 35th, and 37th days after seeding, 50 mL of the plant growth regulator was added instead of water supply.
as §1
On the 64th day after seeding, the number of flowers was evaluated.

[5] = harvested 95th day after seeding

SMILES: C[N+](C)(C)[C@@H](Cc1c[nH]c(=S)[nH]1)C(=O)[O-] [EGT, ergothioneine]
- Underground part weight ratio to EGT (radish (Akamaru Hatsuka)): 1.0
- Underground part weight ratio to untreated control (radish (Akamaru Hatsuka)): 1.2
- Plant height ratio to EGT ([1]; 95th day after seeding): 1.0
- Plant height ratio to untreated control ([1]; 95th day after seeding): 1.1
- Seed yield ratio to EGT [1, 5]: 1.0
- Seed yield ratio to untreated control [1, 5]: 1.2
- Wheat plant height ratio to EGT (wheat): 1.0
- Wheat plant height ratio to untreated control (wheat): 1.1
- Aboveground part weight ratio to EGT [2]: 1.0
- Aboveground part weight ratio to untreated control [2]: 1.1
- Plant height ratio to EGT [2]: 1.0
- Plant height ratio to untreated control [2]: 1.1
- Seed yield ratio to EGT [2]: 1.0
- Seed yield ratio to untreated control [2]: 1.3
- Rapeseed plant height ratio to EGT (rapeseed): 1.0
- Rapeseed plant height ratio to untreated control (rapeseed): 1.1
- Seed yield ratio to EGT [3]: 1.0
- Seed yield ratio to untreated control [3]: 1.3
- Seed yield ratio to EGT ([4]; compared with 1 mM EGT): 1.0
- Seed yield ratio to untreated control ([4]; 50 mL on 8th, 10th, 12th, 14th days): 1.2
- Flower number ratio to EGT (tomato (Micro Tom)): 1.0
- Flower number ratio to untreated control (tomato (Micro Tom)): 1.3
